Reference: patent US20030235577A1, “Methods and compositions for preventing and treating microbial infections” (priority 2002, published 2003)

What was measured:
S. aureus [1] = assay: Peritonitis model, peptide injected intraperitoneally after S. aureus; format: in vivo, C57/B16 mice; conditions: 72 hour time point, peptide 1 mg intraperitoneally; for survival: S. aureus 6×10^7 CFU
Protocol: Bacterial preparation: Staphylococcus aureus a clinical isolate was grown in tryptic soy broth for 18 hours at 37° C. An aliquot was placed in fresh media and grown until mid-log phase of growth. S. aureus was centrifuged and washed in sterile PBS and diluted. Bacteria concentration of O.D.540 of 0.9, corresponding to a concentration of 6×10^7 CFU/ml was used for inoculation.
Peptide preparation: Murine MMP-12 C-terminal peptide […] (SEQ ID NO:37; 333-352) and Human MMP-12 C-terminal peptide […] (SEQ ID NO:36; 341-359) and a human MMP-12 peptide with a single nucleotide polymorphism: […] (SEQ ID NO:55) were solubilized in sterile H2O at a concentration of 4 mg/ml.
Peritonitis model: C57/B16 mice received intraperitoneal injection of bacteria in a total volume of 1 ml (6×10^7 CFU). Peptides were intraperitoneally injected immediately after at a dose of 1 mg. […] The control mice received the same intraperitoneal injection of bacteria as in the test groups and then received an injection of vehicle with no peptide.

S aureus = assay: Dose response of S. aureus to MMP-12 C-terminal peptides; format: cell-based, Staphylococcus aureus; conditions: various concentrations of peptide, 100 minutes
Protocol: Dose response: samples of S aureus were incubated with various concentrations of murine peptide (SEQ ID NO: 37), human peptide (SEQ ID NO: 36) and Human SNP peptide (SEQ ID NO:55). The human SNP peptide (SEQ ID NO:55) has a single nucleotide change from the sequence of SEQ ID NO 36. The peptide SEQ ID NO:36 has the amino acid sequence: […] and the peptide SEQ ID NO:55 has the amino acid sequence […]. The amount of bacteria remaining at various the various concentrations was determined for each group of a 100 minute time course.

S. aureus [2] = assay: In vitro antimicrobial activity, co-incubation with S. aureus in 5% LB and CFU count; format: cell-based, Staphylococcus aureus; conditions: S. aureus, 5% LB culture, similar doses and conditions as full-length MMP-12
Protocol: S. aureus co-culture was incubated for 60 minutes with doses of MMP-12 C-terminal. Aliquots of cultures were diluted in PBS at 1:10 and 1:100 dilution. Dilutions were plated on LB agar plates for 18 hour incubation at 37° C. Controls consisted of column fractions that lacked MMP-12 carboxy terminal determined by immunoblotting.
MMP-12's mechanism of action as a host defense protein was investigated. To test for direct activity, functional full-length recombinant human MMP-12 was incubated with S. aureus in a 5% LB culture. […] MMP-12 enzymatic activity was not required for this antimicrobial effect.
Mid-log phase bacteria (10^5) were incubated in the absence or presence of purified MMP-12 C-terminal in a total volume of 100 μl of 10 mmol/L sodium phosphate containing 5% (vol/vol) TSB at 37° C. for 1 hour. Serial dilutions were then spread on agarose plates and the number of CFUs were determined after overnight incubation.

S. aureus [3] = assay: Propidium iodide exclusion assay with fluorescence microscopy; format: cell-based, Staphylococcus aureus; conditions: 20 μg/ml, 30 minutes
Protocol: Recombinant segments of MMP-12 C-terminal were generated each covering one third of the C-terminal. Segments were then tested for anti-microbial activity against S. aureus. […] We hypothesized that in this region there was a secondary structure that had potential antimicrobial structure and properties consistent with the structure in cathelicidins. A predicted amphipathic and alpha helical structure was found in this region, which was conserved in the MMP-12 C-terminal domains from rabbit, rat, mouse and human. […] These studies have been repeated n>10 with similar results. FIG. 10 illustrates thae effect of MMP-12 C-terminal domain on cell survival.

| Substance | amount of S. aureus remaining (S aureus) | direct antimicrobial activity (S. aureus [2]) | other results |
| --- | --- | --- | --- |
| ARNQVFLFKDDKYWLISNLR (listed as Homo sapiens) [Human MMP-12 peptide] | zero S. aureus at most concentrations | – | activity (clinical observation) (S. aureus [1]): normal activity; survival (S. aureus [1]): 100% |
| ARNQVFLFKDDKYWLISSLR (listed as Homo sapiens) [Human SNP] | zero S aureus at all concentrations | – | – |
| MMP-3: commercially available full length pro-MMP 3 [reference compound] | – | did not demonstrate this direct antimicrobial activity | – |
| MMP-7: commercially available full length pro-MMP 7 [reference compound] | – | did not demonstrate this direct antimicrobial activity | – |
| MMP-8: commercially available full length pro-MMP 8 [reference compound] | – | did not demonstrate this direct antimicrobial activity | – |
| SRDLMFIFRGRKFWALNGYD [MMP-13 peptide, reference compound] | – | – | bacterial death, uptake of membrane impermeant dye (S. aureus [3]): little dye uptake |
| SRNQLFLFKDEKYWLINNLV (listed as Mus musculus) [Murine MMP-12 peptide] | higher at each concentration | – | activity (clinical observation) (S. aureus [1]): decrease activity; survival (S. aureus [1]): 75%; bacterial death, uptake of membrane impermeant dye (S. aureus [3]): clumping and increased uptake of membrane impermeant dye |
